Test results taken from patent US5952189A (priority 1997, dated 1999).
“Also recorded” adds a separate entry of the source. Where two headings read alike, the source gives them in different places. Starred links: 1 amine or outer side, 2 acyl side, 3 side chain; linkers in the order of their positions; H or OH if unused. Positions of bridges follow the written chain, without caps; N, C: chain ends. Non-standard residues stand in square brackets, D forms with d. Residues, ends and D or L forms follow the SMILES beside them. Chains are numbered I, II in the order given. Actinocin(9to1) = Cc1c2oc3c(C)ccc(C(=O)[*:1])c3nc-2c(C(=O)[*:2])c(N)c1=O; NMeV = CN[C@H](C(=O)O)C(C)C; Sar = CNCC(=O)O

Key:
[1] = test system: 3T3; assay: Inhibition of UV-induced DNA fragmentation in 3T3 cells; type: cell-based, murine; settings: inhibitor 100 μM, UV 0.5 J/cm^2, 8 h, no inhibitor 38 ± 1.9
Protocol: To determine if these findings were unique to U937 or if other cell lines also require protease activity to undergo apoptosis, the effects of several inhibitors on apoptosis induced by UV light in the human mammary carcinoma, BT-20, the murine fibroblast cell line, 3T3, and the human myeloid leukemia, HL-60 were tested. For the BT-20 and 3T3 cells, target cells were pretreated for one hour (with or without inhibitors as indicated in the table) and exposed to UV light at 0.5 J/cm^2 and then incubated for eight hours prior to assessing DNA fragmentation. HL-60 cells were pretreated for one hour (with or without inhibitors as indicated in the table) and exposed to UV at 0.2 J/cm^2 and then incubated for two hours prior to assessing DNA fragmentation.
DNA fragmentation assays were carried out according to the protocol of Wright S. C., et al. (1,992) J. Cell. Biochem. 48, 344-355. Target cells were labeled with ^3 H-thymidine and plated in triplicate in flat bottom microtiter plates. Cells were incubated for the indicated length of time for each experiment in the presence of TNF or various inhibitors. In some experiments, cells were treated with UV light at 245 nm using a UV Crosslinker (Fisher Scientific). Assays were harvested and counted on a Packard matrix 96 beta counter. Percent DNA fragmentation was calculated as for the nuclear assay described in Example 3. In assays to test the effects of various inhibitors, the pH of extra wells containing assay buffer, target cells, and each inhibitor was always checked at the beginning and end of each assay to assure that the pH remained at 7.5.

[2] = test system: U937 cells; assay: cells; type: cell-based, human
[3] = test system: BT-20; type: cell-based, human; settings: for % DNA fragmentation: BT-20, inhibitor 100 μM, UV 0.5 J/cm^2, 8 h, no inhibitor 44 ± 3.6; for Effect on UV-induced DNA fragmentation: summary of Table 2 (BT-20, 3T3, HL-60)
[4] = test system: TNF-induced hepatocyte apoptosis; assay: TNF-induced hepatotoxicity in mice (serum transaminases); type: in vivo, Balb/c mice
Protocol: In this example the concept that a protease inhibitor such as DK120 may attenuate inappropriate apoptosis that causes tissue damage in systemic inflammatory response syndrome (SIRS) was tested. TNF-induced hepatocyte apoptosis in mice was performed as described by Leist et al. ((1995) J. Immunol. 154:1778-1786). Briefly, Balb/c mice were injected ip with […] murine TNF combined with […] Actinomycin D/mouse. Twelve h later, mice were anesthetized and bled from the heart to measure serum transaminase levels, which are standard clinically used indicators of liver damage. Mice that were treated with protease inhibitors were injected ip with these compounds 30 min. prior to TNF. Alanine aminotransferase (ALT) and aspartate aminotransferase (AST) were assayed using a commercially available kit (Sigma). […] However, treatment with DK120 caused a doss-dependent decrease in serum transaminase levels. […] However, a drug that nonspecifically blocks all apoptotic pathways that normally function to maintain homeostasis may not be clinically desirable. Subsequent studies were performed to determine if DK120 could also suppress hepatocyte apoptosis in response to a different stimulus.
^1 Mice (2 for each treatment) were injected ip +/- DK120 30 min prio
to TNF and Actinomycin D. Twelve h later serum transaminase levels were
(§1) To further explore the specificity of DK120 attenuation of TNF-induced hepatotoxicity, several compounds were tested that were found previously not to inhibit apoptotic protease proteolytic activity as measured against a synthetic substrate (data not shown). […] Therefore, the protection mediated by DK120 is not a property of any boron-containing molecule.
^1 Mice (3 for each treatment) were injected ip +/- the inhibitors 30
min prior to TNF and Actinomycin D. Twelve h later serum transaminase

[5] = test system: apoptotic protease; assay: Inhibition of apoptotic protease proteolytic activity against a synthetic substrate; type: biochemical, human; settings: data not shown
Protocol: Proteolytic activity was assayed using synthetic substrates selective for different known proteases. All assays were set up by adding 0.02 ml of sample (or known enzyme as a positive control) plus 0.18 ml of appropriate substrate dissolved in PBS PH 7.5 in triplicate in flat bottom microtiter plates, incubated for the indicated length of time at room temperature, and the OD at 405 nm measured using a plate reader.
Elastase-like activity was measured using N-methoxysuccinyl-ala-ala-pro-valp-nitroanilide (SEQ ID NO: 3) (MAAPV) at 0.25 mM as a substrate. For convenience and maximum sensitivity, these assays were routinely incubated 20 h to monitor protease purification. Under these conditions, the elastase dose response was linear up to a concentration of 6.0 μg/ml (OD of 1.0), see FIG. 3C. […] In order to quantitate the activity of the purified protease, identical assays were set up but kinetic readings of OD were taken every hour from 1-6 h. One unit of enzyme was calculated as the amount of enzyme that hydrolyzes 1.0 nmol substrate/h.
as §1

[6] = test system: isolated U937 nuclei; assay: DNA fragmentation assay using isolated U937 nuclei; type: cell-based, human; settings: concentrations as high as 0.1 mg/ml (FIG. 6A)
Protocol: U937 cells were labeled with ^3 H-thymidine by culturing overnight with isotope at 0.5 μCi/ml. The cells were pelleted, washed once, and the cytoplasmic membrane lysed by resuspending the cells in assay buffer (50 mM Tris, 250 mM sucrose 10 mM MgSO4, pH 7.5) plus 0.02% NP-40. Nuclei were then pelleted and resuspended in assay buffer at 1×10^6 /ml. The assay was set up in triplicate in flat bottom microtiter plates under sterile conditions. Nuclei (0.05 ml) were mixed with 0.05 ml of sample diluted in 50 mM Tris pH 7.5 or buffer alone to determine total counts. Plates were incubated for 5 h at 37° C. and then harvested by the addition of 0.1 ml of harvesting buffer (10 mM Tris, 10 mM EDTA, 0.3% Triton X-100, pH 7.5). Plates were harvested by filtration onto glass fiber paper and counted on a Packard Matrix 96 beta counter. Percent DNA fragmentation was calculated as follows: […]

[7] = test system: isolated U937 nuclei; assay: Gel electrophoresis of DNA fragmentation in isolated U937 nuclei; type: cell-based, human
[8] = test system: U937 cells; settings: cited from earlier work
[9] = Binding to DK120 affinity column; settings: eluted with 0.1 M HCl
[10] = Chymotrypsin-like activity on SAAPP substrate; type: biochemical; settings: eluted from DK120 column
Protocol: To purify the apoptotic protease, a DK120 affinity column was prepared.
To measure chymotrypsin-like activity, N-succinyl-ala-ala-pro-phe p-nitroanilide (SEQ ID NO: 2) (SAAPP) at 0.1 mM was used as the substrate. Trypsin-like activity was measured using N-α-benzyloxycarbonyl-L-lysine thiobenzyl ester (BLT) at 0.2 mM plus 0.11 mM […].

[11] = test system: LPS-induced hepatotoxicity

For `CC(C)CC(NC(=O)C1OC1C(=O)O)C(=O)NCCCCN=C(N)N` (centres unmarked) [E64], the “% DNA fragmentation” value [1] was 42 ± 2.7%, the “Effect on DNA fragmentation induced by TNF or UV light” value (from here on “Effect on DNA fragmentation induced”) ([2]; U937 cells, result in words) was “inactive” and the “% DNA fragmentation” value [3] was 41 ± 5.6%. For the same molecule, the “Effect on UV-induced DNA fragmentation” value [3] was “inactive”.

With `O=S(=O)(F)Cc1ccccc1` [PMSF, phenylmethylsulfonylfluoride] the “Effect on DNA fragmentation induced” value [2] was “not inhibited; also recorded: without effect” and the “Inactive Compounds, Highest Concentration Tested (highest nontoxic concentration, inactive)” value [2] was 100 µM.

For `Cc1ccc(S(=O)(=O)N[C@@H](CCCCN)C(=O)CCl)cc1` [TLCK, N-α-p-tosyl-L-lysine-chloromethyl ketone], the “Effect on DNA fragmentation induced” value ([2]; U937 cells, result in words) was “without effect”.

For `CC(=O)NC(Cc1ccccc1)C(=O)Oc1ccc2ccccc2c1` (racemic) [APNE, N-acetyl-DL-Phenylalanine β-naphthyl ester], the IC50 ([2]; Homo sapiens, U-937, read-out: IC50 (Active Concentration), TNF and UV-light induced apoptosis) was 40 µM and the “Effect on DNA fragmentation induced” value ([2]; U937 cells, result in words) was “blocked DNA fragmentation”.

For `CC(C)C[C@H](NC(=O)[C@@H](NC(=O)N[C@@H](Cc1ccccc1)C(=O)O)[C@@H]1CCN=C(N)N1)C(=O)N[C@H](C=O)Cc1ccccc1` [Chymostatin], the “Effect on DNA fragmentation induced” value ([2]; U937 cells, result in words) was “without effect”.

With Aprotinin the “Protection from TNF-induced hepatotoxicity” value ([4]; Table 10, 10 mg/kg) was “neither of these inhibitors had much effect on ALT levels”, the ALT ([4]; mouse, in vivo) was 346 +/- 14 U/ml and the “Inhibition of apoptotic protease proteolytic activity” value [5] was “do not inhibit apoptotic protease”.

In the case of `COC(=O)[C@H](CCCNC(=N)N)NS(=O)(=O)c1ccc(C)cc1` [TAME, p-toluene-sulfonyl-L-arginine methyl ester], the “Effect on DNA fragmentation induced” value ([2]; U937 cells, result in words) is reported as “without effect”.

In the case of `CCN1C(=O)C=CC1=O` [N-ethylmaleimide], the “Effect on DNA fragmentation induced” value ([2]; U937 cells, result in words) is reported as “inactive”.

For trypsin, the “DNA fragmentation in isolated nuclei by commercial proteases” value (from here on “DNA fragmentation in isolated nuclei”) [6] was “completely inactive”.

In the case of “α1-anti-protease: α1-anti-protease, protease inhibitor”, the “DNA of nuclei treated with compound alone, gel” value ([7]; FIG. 5, lane 4) is reported as “remained in high molecular weight form” and the “Effect on protease-induced DNA fragmentation, gel” value ([7]; protease pretreated 1 hr (FIG. 5, lane 3)) is reported as “DNA fragmentation was abolished”.

In the case of `CCCCCCCCCCCCCC(=O)O[C@@H]1[C@@H](C)[C@@]2(O)[C@@H](C=C(CO)C[C@]3(O)C(=O)C(C)=C[C@@H]23)[C@@H]2C(C)(C)[C@]12OC(C)=O` [Phorbol myristate acetate (PMA), Phorbol myristate acetate], the “Effect on apoptosis” value [8] is given as “inhibits apoptosis induced by TNF or UV light”.

For `NC(=O)c1cccc(N)c1` [3-aminobenzamide], the “Effect on apoptosis” value [8] is listed as “blocked”.

For chymotrypsin, the “Binding to DK120 affinity matrix” value [9] was “efficiently bound”, the “Protease activity on SAAPP substrate after elution and neutralization” value [10] was “high levels of protease activity” and the “DNA fragmentation in isolated nuclei” value [6] was “completely inactive”.

In the case of `N=C(N)c1ccccc1` [Benzamidine], the “Effect on DNA fragmentation induced” value ([2]; U937 cells, result in words) is reported as “without effect”.

For `N[C@H]1C(O)O[C@H](CO)[C@H](O)[C@@H]1O` (some centres unmarked) [Gln, galactosamine], the ALT ([11]; Gln 15 mg alone, survivors) was 137 +/- 33 U/ml, the AST ([11]; Gln 15 mg alone, survivors) was 67 +/- 4.6 U/ml and the “% Mortality” value ([11]; mouse, in vivo) was 0%.

In the case of `Cc1c2oc3c(C)ccc(C(=O)N[C@@H]4C(=O)N[C@H](C(C)C)C(=O)N5CCC[C@H]5C(=O)N(C)CC(=O)N(C)[C@@H](C(C)C)C(=O)O[C@@H]4C)c3nc-2c(C(=O)N[C@@H]2C(=O)N[C@H](C(C)C)C(=O)N3CCC[C@H]3C(=O)N(C)CC(=O)N(C)[C@@H](C(C)C)C(=O)O[C@@H]2C)c(N)c1=O` [Actinomycin D] (I: T[dV]P[Sar][NMeV] / II: T[dV]P[Sar][NMeV]; ester I:1-I:C, II:1-II:C; linker I:N-II:N via Actinocin(9to1)), the ALT ([4]; Table 7, Actinomycin D 15 mg alone, 12 h, none 39) is reported as 70 U/ml, the AST ([4]; Table 7, Actinomycin D 15 mg alone, 12 h, none 51) is reported as 47 U/ml and the ALT ([4]; Table 10 Exp. #1, Actinomycin D 15 mg alone, 12 h) is reported as 71 +/- 8.5 U/ml. The ALT ([4]; Table 10 Exp. #2, Actinomycin D 15 mg alone, 12 h) was 139 +/- 29 U/ml.

For `CC(=O)N[C@@H](CC(C)C)C(=O)N[C@@H](CC(C)C)C(=O)N[C@H](C=O)CCCNC(=N)N` [Leupeptin], the “% DNA fragmentation” value [1] was 36 ± 2.6%, the “Effect on DNA fragmentation induced” value ([2]; U937 cells, result in words) was “without effect” and the “% DNA fragmentation” value [3] was 42 ± 5.6%. The “Effect on UV-induced DNA fragmentation” value [3] was “inactive”.

In the case of `CC(C)C[C@H](NC(=O)[C@@H](O)[C@H](N)Cc1ccccc1)C(=O)O` [Bestatin], the “Effect on DNA fragmentation induced” value ([2]; U937 cells, result in words) is reported as “inactive”.

B1: leukocyte elastase: human leukocyte elastase obtained from Calbiochem (protein, UniProt P08246 30-267, looked up)
Neutrophil elastase: IVGGRRARPHAWPFMVSLQLRGGHFCGATLIAPNFVMSAAHCVANVNVRAVRVVLGAHNLSRREPTRQVFAVQRIFENGYDPVNLLNDIVILQLNGSATINANVQVAQLPAQGRRLGNGVQCLAMGWGLLGRNRGIASVLQELNVTVVTSLCRRSNVCTLVRGRQAGVCFGDSGSPLVCNGLIHGIASFVRGGCASGLYPDAFAPVAQFVNWIDSIIQRSEDNPCPHPRDPDPASRTH
With B1 the “DNA fragmentation in isolated nuclei” value [6] was “cannot induce DNA fragmentation in U937 nuclei” and the “DNA fragmentation in isolated nuclei” value ([6]; listed as elastase) was “completely inactive”.
